In brackets after ≈: the same amount, converted by molar mass.
Legend:
[1] = cited from earlier work
[2] = Preliminary evaluation of uranine fluorescence stability (pH, chlorine); type: physicochemical
Method: Fluorescent molecular markers are subjected to screening criteria, including low toxicity, low background fluorescence in water, economic feasibility for long term use, and commercial availability. Screening criteria are also based on experiments, including stability with light exposure, strong fluorescent intensity, stability under various pH conditions, and stability under chlorine exposure.
Uranine stock solutions were prepared from reagent-grade uranine powder (Fisher Scientific, Pittsburgh, Pa.) dissolved in ultra-pure deionized water from a Milli-Q water purification system (Millipore Corp., San Jose, Calif.). RO desalting runs were conducted using low salinity potable tap water (average reported total dissolved solids (TDS) of about 265 mg/l, TOC of about 1.7 mg/l, and total hardness of about 113 mg/l as CaCO3).

Row | stability of fluorescence intensity with pH ([2]; typical RO process pH operating range, pH of about 6-8) | Compound | Solubility in Water [1] | chlorine tolerance of fluorescence ([2]; about 1-4 ppm of free chlorine)
1 | – | O=C(O)c1c(Cl)c(Cl)c(Cl)c(Cl)c1-c1c2cc(I)c(=O)c(I)c-2oc2c(I)c(O)c(I)cc12 [Bengal rose] | 100 mg/mL (≈ 103 mM) | –
2 | – | O=C(O)c1ccccc1-c1c2cc([N+](=O)[O-])c(=O)c(Br)c-2oc2c(Br)c(O)c([N+](=O)[O-])cc12 [Eosin B] | 40 mg/mL (≈ 69 mM) | –
3 | – | Cc1ccc(N2C(=O)c3cccc4c(N)c(S(=O)(=O)[O-])cc(c34)C2=O)cc1.[Na+] [Lissamine FF] | 40 mg/mL | –
4 | – | O=S(=O)([O-])c1cc(O)c2ccc3c(S(=O)(=O)[O-])cc(S(=O)(=O)[O-])c4ccc1c2c34.[Na+].[Na+].[Na+] [Pyranine] | 178 mg/mL | –
5 | – | CCN(CC)c1ccc2c(-c3ccc(S(=O)(=O)O)cc3S(=O)(=O)[O-])c3ccc(=[N+](CC)CC)cc-3oc2c1 [Sulforhodamine B] | 10 mg/mL (≈ 17.9 mM) | –
6 | – | O=S(=O)([O-])c1ccccc1C=Cc1ccc(-c2ccc(C=Cc3ccccc3S(=O)(=O)[O-])cc2)cc1.[Na+].[Na+] [Tinopal CBS-X] | 25 mg/mL | –
7 | stable fluorescence intensity | O=C([O-])c1ccccc1-c1c2ccc(=O)cc-2oc2cc([O-])ccc12.[Na+].[Na+] [Uranine] | – | high level of chlorine tolerance
8 | – | Amidorhodamine G | very soluble | –
9 | – | Erythrosine | 20 mg/mL | –
10 | – | Lanaperl fast yellow | very soluble | –
11 | – | Sodium naphtionate | 240 mg/mL | –

From patent publication US20150001139A1, “REAL-TIME INTEGRITY MONITORING OF SEPARATION MEMBRANES” (THE REGENTS OF THE UNIVERSITY OF CALIFORNIA, priority 2013, published 2015)
